Measurements reported in US20230100838A1 (Revolution Medicines, Inc., priority 2019, published 2023).

Assays:
[1] = molecular target: T1, GDP-loaded K-Ras (1-169) C51S, C80L, C118S (Homo sapiens, UniProt P01116, C118S/C51S/C80L); test: K-Ras WT (GDP) cross-linking assay (conjugate formation, TOF mass spectrometry); type: binding; parameters: key: 0: No observed x-linking; +: 0 < x ≤ 20; ++: 20 < x ≤ 40; +++: 40 < x ≤ 100; settings: Table 5; percent covalently modified K-Ras by MS; room temperature; typical compound conc. 2, 10, 25 μM, endpoints 1 and 24 h
T1 construct: GDP-loaded K-Ras (1-169) C51S, C80L, C118S
Protocol: (§1) Protocol: K-Ras G12D(GDP) Cross-Linking Assay
(§2) Note: while the following protocol outlines the procedure for K-Ras G12D(GDP), a person of skill in the art may substitute other Ras proteins, and may also substitute a non-hydrolyzable GTP analog for GDP to study GTP bound Ras protein.
(§3) GDP-loaded K-Ras (1-169) G12D, C51S, C80L, C118S and GDP-loaded K-Ras (1-169) C51S, C80L, C118S were adjusted to 50 μM in K-Ras assay buffer (12.5 mM HEPES, 75 mM NaCl and 1 mM MgCl2 at pH 7.4). A 5 μL aliquot of each protein solution was added to each well of a 96-well microplate containing 40 μL of assay buffer. Initial compound stocks were prepared in DMSO at 100 times their final assay concentration. Compounds were then diluted 10-fold into K-Ras assay buffer to 10 times their final concentration. A 5 μL aliquot of each diluted compound solution was added to each protein solution in the 96-well microplate to initiate the reaction, which then proceeded at room temperature. Typical final compound concentrations were 2, 10, and 25 μM. At each time point, the reactions were analyzed immediately or quenched with 5 μL of a 5% formic acid solution and kept at 4° C. until analysis. Typical assay endpoints were 1 and 24 h.
(§4) Data collection took place on an Agilent 6230 TOF Mass Spectrometer. Complete reactions were injected onto a C4 reverse-phase column to separate protein from buffer components prior to entering the mass spectrometer. The proteins were eluted from the column by increasing acetonitrile fraction in the mobile phase and fed directly into the mass analyzer. Initial analysis of raw data took place in Agilent MassHunter BioConfirm software and consisted of deconvolution of multiple protein charge states with the maximum entropy algorithm, with a mass step of 1 Da. The heights of all deconvoluted protein masses were exported for further data analysis. The percent modification of each protein was then determined by calculating the peak height of the covalently modified K-Ras species as a percentage of the sum total of K-Ras protein peak height.

[2] = molecular target: T2, GDP-loaded K-Ras (1-169) G12D, C51S, C80L, C118S (Homo sapiens, UniProt P01116, C118S/C51S/C80L/G12D); test: K-Ras G12D(GDP) cross-linking assay (conjugate formation, TOF mass spectrometry); type: binding; parameters: key: 0: No observed x-linking; +: 0 < x ≤ 20; ++: 20 < x ≤ 40; +++: 40 < x ≤ 100; settings: Table 5; percent covalently modified K-Ras by MS; room temperature; typical compound conc. 2, 10, 25 μM, endpoints 1 and 24 h
T2 construct: GDP-loaded K-Ras (1-169) G12D, C51S, C80L, C118S
Protocol: as §1, §2, §3, §4

SMILES | WT x-linking (%) [1] | G12D x-linking (%) [2]
Cc1ccnc(C(C)C)c1-n1c(=O)nc(N2[C@@H](C)CN(C(=O)[C@H]3CN3)C[C@@H]2C)c2cc(F)c(-c3c(O)cccc3F)nc21 [Example 136] | + (0 < x ≤ 20) | + (0 < x ≤ 20)
CN1CCC[C@H]1COc1nc2c(c(N3CCN(C(=O)[C@H]4CN4)[C@@H](CC#N)C3)n1)CCN(c1cc(O)cc3ccccc13)C2 [Example 114] | 0 | ++ (20 < x ≤ 40)
CC(=O)N1C[C@H]1C(=O)N1CCN(c2nc(OC[C@@H]3CCCN3C)nc3c2CCN(c2cccc4cccc(C)c24)C3)C[C@@H]1CC#N [Example 99, 2-((S)-1-((S)-1-acetylaziridine-2-carbonyl)-4-(7-(8-methylnaphthaien-1-yl)-2-(((S)-1-methylpyrrolidin-2-yl)methoxy)-5,6,7,8-tetrahydropyrido[3,4-d]pyrimidin-4-yl)piperazin-2-yl)acetonitrile] | + (0 < x ≤ 20) | + (0 < x ≤ 20)
Cc1cccc2cccc(N3CCc4c(nc(OC[C@@H]5CCCN5C)nc4N4CCN(C[C@H]5CN5)[C@@H](CC#N)C4)C3)c12 [Example 100, 2-((S)-1-(((R)-aziridin-2-yl)methyl)-4-(7-(8-methylnaphthalen-1-yl)-2-(((S)-1-methylpyrrolidin-2-yl)methoxy)-5,6,7,8-tetrahydropyrido[3,4-d]pyrimidin-4-yl)piperazin-2-yl)acetonitrile] | + (0 < x ≤ 20) | + (0 < x ≤ 20)
O=C([C@@H]1CN1)N1CCN2c3ncnc4cc(-c5c(O)cccc5F)c(Cl)c(c34)OC[C@@H]2C1 [Example 121] | 0 | 0
Cc1ccnc(C(C)C)c1-n1c(=O)nc(N2C[C@H](C)N(C(=O)[C@@H]3CN3)C[C@H]2C)c2cc(F)c(-c3c(O)cccc3F)nc21 [Example 144] | 0 | 0
CC(=O)N1C[C@H]1CN1CCN(c2nc(OC[C@@H]3CCCN3C)nc3c2CCN(c2cccc4cccc(C)c24)C3)C[C@@H]1CC#N [Example 118, 2-((S)-1-(((R)-1-acetylaziridin-2-yl)methyl)-4-(7-(8-methylnaphthalen-1-yl)-2-(((S)-1-methylpyrrolidin-2-yl)methoxy)-5,6,7,8-tetrahydropyrido[3,4-d]pyrimidin-4-yl)piperazin-2-yl)acetonitrile] | + (0 < x ≤ 20) | + (0 < x ≤ 20)
Cc1cccc2cccc(N3CCc4c(nc(OC[C@@H]5CCCN5C)nc4N4CC[C@@H](NC(=O)[C@H]5CN5)[C@@H](CC#N)C4)C3)c12 [Example 125] | + (0 < x ≤ 20) | + (0 < x ≤ 20)
COc1ccccc1CN=C=N[C@@H]1CCN(c2nc(OC[C@@H]3CCCN3C)nc3c2CCN(c2cccc4cccc(C)c24)C3)C[C@@H]1CC#N [Example 102, 2-((3S,4R)-4-((((2-methoxybenzyl)imino)methylene)amino)-1-(7-(8-methylnaphthalen-1-yl)-2-(((S)-1-methylpyrrolidin-2-yl)methoxy)-5,6,7,8-tetrahydropyrido[3,4-d]pyrimidin-4-yl)piperidin-3-yl)acetonitrile] | + (0 < x ≤ 20) | + (0 < x ≤ 20)
COc1ccccc1CN=C=N[C@H]1CCN(c2nc(OC[C@@H]3CCCN3C)nc3c2CCN(c2cccc4cccc(C)c24)C3)C[C@@H]1CC#N [Example 103, 2-((3S,4S)-4-((((2-methoxybenzyl)imino)methylene)amino)-1-(7-(8-methylnaphthalen-1-yl)-2-(((S)-1-methylpyrrolidin-2-yl)methoxy)-5,6,7,8-tetrahydropyrido[3,4-d]pyrimidin-4-yl)piperidin-3-yl)acetonitrile] | + (0 < x ≤ 20) | + (0 < x ≤ 20)
Cc1ccnc(C(C)C)c1-n1c(=O)nc(N2C[C@@H](C)N(C(=O)[C@H]3CN3)C[C@@H]2C)c2cc(F)c(-c3c(O)cccc3F)nc21 [Example 138] | 0 | 0
CO[C@H]1CCC[C@H]1N=C=NC1CCN(c2nc(OC[C@@H]3CCCN3C)nc3c2CCN(c2cccc4cccc(C)c24)C3)CC1 (single isomer, unassigned) [Example 150] | + (0 < x ≤ 20) | + (0 < x ≤ 20)
CO[C@@H]1CCC[C@@H]1N=C=NC1CCN(c2nc(OC[C@@H]3CCCN3C)nc3c2CCN(c2cccc4cccc(C)c24)C3)CC1 (single isomer, unassigned) [Example 149] | + (0 < x ≤ 20) | ++ (20 < x ≤ 40)
C#CCCN1CCC[C@H]1COc1nc2c(c(N3CCN(C(=O)[C@@H]4CN4)[C@@H](CC#N)C3)n1)CCN(c1cccc3cccc(C)c13)C2 [Example 117, 2-((S)-1-((S)-aziridine-2-carbonyl)-4-(2-(((S)-1-(but-3-yn-1-yl)pyrrolidin-2-yl)methoxy)-7-(8-methylnaphthalen-1-yl)-5,6,7,8-tetrahydropyrido[3,4-d]pyrimidin-4-yl)piperazin-2-yl)acetonitrile] | 0 | + (0 < x ≤ 20)
Cc1ccc2[nH]ncc2c1N1CCc2c(nc(OC[C@@H]3CCCN3C)nc2N2CCN(C(=O)[C@H]3CN3)[C@@H](CC#N)C2)C1 [Example 110, 2-((S)-1-((R)-aziridine-2-carbonyl)-4-(7-(5-methyl-1H-indazol-4-yl)-2-(((S)-1-methylpyrrolidin-2-yl)methoxy)-5,6,7,8-tetrahydropyrido[3,4-d]pyrimidin-4-yl)piperazin-2-yl)acetonitrile] | + (0 < x ≤ 20) | + (0 < x ≤ 20)
C#CCCN1CCC[C@H]1COc1nc2c(c(N3CCN(C(=O)[C@H]4CN4)[C@@H](CC#N)C3)n1)CCN(c1cccc3cccc(C)c13)C2 [Example 116, 2-((S)-1-((R)-aziridine-2-carbonyl)-4-(2-(((S)-1-(but-3-yn-1-yl)pyrrolidin-2-yl)methoxy)-7-(8-methylnaphthalen-1-yl)-6,6,7,8-tetrahydropyrldo[3,4-d]pyrimidin-4-yl)piperazin-2-yl)acetonitrile] | + (0 < x ≤ 20) | + (0 < x ≤ 20)
COC(=O)[C@@H]1CN1C(=O)N1CCN(c2nc(OC[C@@H]3CCCN3C)nc3c2CCN(c2cccc4cccc(C)c24)C3)C[C@@H]1CC#N [Example 109, methyl (S)-1-((S)-2-(cyanomethyl)-4-(7-(8-methylnaphthalen-1-yl)-2-(((S)-1-methylpyrrolidin-2-yl)methoxy)-5,6,7,8-tetrahydropyrido[3,4-d]pyrimidin-4-yl)piperazine-1-carbonyl)aziridine-2-carboxylate] | + (0 < x ≤ 20) | + (0 < x ≤ 20)
Cc1ccc2[nH]ncc2c1N1CCc2c(nc(OC[C@@H]3CCCN3C)nc2N2CCN(C(=O)[C@@H]3CN3)[C@@H](CC#N)C2)C1 [Example 111, 2-((S)-1-((S)-aziridine-2-carbonyl)-4-(7-(5-methyl-1H-indazol-4-yl)-2-(((S)-1-methylpyrrolidin-2-yl)methoxy)-5,6,7,8-tetrahydropyrido[3,4-d]pyrimidin-4-yl)piperazin-2-yl)acetonitrile] | 0 | + (0 < x ≤ 20)
O=C([C@H]1CN1)N1CCN2c3ncnc4cc(-c5c(O)cccc5F)c(Cl)c(c34)OC[C@@H]2C1 [Example 120, ((R)-aziridin-2-yl)((8aS)-6-chloro-5-(2-fluoro-6-hydroxyphenyl)-8a,9,11,12-tetrahydropyrazino[2′,1′:3,4][1,4]oxazepino[5,6,7-de]quinazolin-10(8H)-yl)methanone] | 0 | 0
Cc1ccnc(C(C)C)c1-n1c(=O)nc(N2C[C@@H](C)N(C(=O)[C@@H]3CN3)C[C@@H]2C)c2cc(F)c(-c3c(O)cccc3F)nc21 [Example 143] | 0 | 0
Cc1ccnc(C(C)C)c1-n1c(=O)nc(N2[C@H](C)CN(C(=O)[C@H]3CN3)C[C@@H]2C)c2cc(F)c(-c3c(O)cccc3F)nc21 [Example 135] | 0 | 0
Cc1cccc2cccc(N3CCc4c(nc(OC[C@@H]5CCCN5C)nc4N4CC[C@@H](NC(=O)[C@@H]5CN5)[C@@H](CC#N)C4)C3)c12 [Example 128] | + (0 < x ≤ 20) | + (0 < x ≤ 20)
